In experiment [1] the target is T1, Cathepsin B (Homo sapiens, UniProt P07858). The experiment can be described thus: Inhibition of human cathepsin B at 20 uM relative to control.
Experiment [2] can be described thus: Inhibition of Plasmodium falciparum recombinant falcipain 2 using Cbz-Leu-Arg-AMC as substrate after 10 mins by fluorescence spectrophotometric analysis.
The species named for experiment [3] is Homo sapiens. The experiment can be described thus: Inhibition of human alpha-chymotrypsin using Suc-Leu-Tyr-AMC as substrate assessed as residual activity after 10 mins by Dixon plot analysis.
Experiment [4] addresses T2, Procathepsin L (Homo sapiens, UniProt P07711). As to the kind of experiment: Inhibition of human cathepsin L at 20 uM relative to control.
Target sequence in this assay (P07711 114-333 limits assumed): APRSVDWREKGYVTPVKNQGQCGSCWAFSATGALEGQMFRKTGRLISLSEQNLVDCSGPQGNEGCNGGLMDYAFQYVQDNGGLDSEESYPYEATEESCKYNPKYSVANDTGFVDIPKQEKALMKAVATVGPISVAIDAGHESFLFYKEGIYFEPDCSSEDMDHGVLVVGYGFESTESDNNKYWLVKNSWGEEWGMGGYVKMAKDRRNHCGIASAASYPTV
Experiment [5] concerns the target T2, Procathepsin L. As to the kind of experiment: Inhibition of human cathepsin L.
Target sequence in this assay (P07711 whole entry): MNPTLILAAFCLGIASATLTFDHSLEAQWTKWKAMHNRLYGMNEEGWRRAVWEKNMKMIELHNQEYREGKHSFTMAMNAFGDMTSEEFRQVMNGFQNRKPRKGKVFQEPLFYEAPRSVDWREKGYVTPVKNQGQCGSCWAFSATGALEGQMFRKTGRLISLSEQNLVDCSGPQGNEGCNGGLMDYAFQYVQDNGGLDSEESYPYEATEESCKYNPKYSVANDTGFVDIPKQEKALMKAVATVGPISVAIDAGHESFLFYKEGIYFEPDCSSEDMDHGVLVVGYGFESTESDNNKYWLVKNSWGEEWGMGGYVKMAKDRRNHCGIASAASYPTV
The target of experiment [6] is T1, Cathepsin B. As to the kind of experiment: Inhibition of human cathepsin B.
Experiment [7] deals with Plasmodium falciparum. As to the kind of experiment: Inhibition of Plasmodium falciparum recombinant falcipain 2 using Cbz-Leu-Arg-AMC as substrate at 20 uM after 10 mins by fluorescence spectrophotometric analysis relative to control.

Active and inactive are the calls of the source. The calls are words filed in the database; no cut-off is given here. Where a SMILES comes first, the peptide text is derived from it. [ ]: non-standard residue; d: D form. The star is where a group is joined. Ac6c = NC1(C(=O)O)CCCCC1; Cbz = O=C(OCc1ccccc1)*

One may read the inhibition as the share of the control response that was lost under treatment. For orientation: Ki means a measure of affinity in units of concentration, obtained from inhibition or displacement.

Regarding `N#CCNC(=O)C1(NC(=O)[C@H]2C[C@@H]2c2ccccc2)CCCCC1` (racemic), the inhibition in experiment [1], in experiment [4] and in experiment [7] was under 35% in each case. The Ki in experiment [2] was found to be 2.1 µM; in experiment [5], 13.1 µM; in experiment [6], 5 µM. Also, the result in experiment [3] was inactive.
On to `N#CCNC(=O)C1(NC(=O)C2CCCC2)CCCCC1`, for which the inhibition in experiment [1], in experiment [4] and in experiment [7] was under 35% each time. In experiment [2], the Ki was determined as 7.6 µM. Besides, in experiment [3], the outcome was inactive.
`N#CCNC(=O)C1(NC(=O)CCc2ccco2)CCCCC1`: the inhibition in experiment [1], in experiment [4] and in experiment [7] was under 35% throughout. The Ki in experiment [2] stood at 17.2 µM. Moreover, in experiment [3], the outcome was inactive.
As to `O=CCNC(=O)C1(NC(=O)OCc2ccccc2)CCCCC1` (Cbz-[Ac6c]-Gly-aldehyde), the inhibition in experiment [1], in experiment [4] and in experiment [7] was under 35% throughout. In addition, the Ki was 0.065 µM in experiment [2], 0.82 µM in experiment [5] and 1.35 µM in experiment [6]. In experiment [3], the outcome was inactive.
As to `N#CCNC(=O)C1(NC(=O)CCc2cccnc2)CCCCC1`, the inhibition in experiment [1], in experiment [4] and in experiment [7] was under 35% in each case. For the same molecule, in experiment [2], the Ki is 9.4 µM. In addition, the result in experiment [3] was inactive.
On to `N#CCNC(=O)C1(NC(=O)CCC2CCCC2)CCCCC1`, for which the inhibition in experiment [1], in experiment [4] and in experiment [7] was under 35% each time. Moreover, the Ki was determined as 8.2 µM in experiment [2], 29.8 µM in experiment [5] and 25 µM in experiment [6]. Moreover, the result in experiment [3] was inactive.
In the case of `COc1ccccc1CCC(=O)NC1(C(=O)NCC#N)CCCCC1`, the inhibition in experiment [1], in experiment [4] and in experiment [7] was under 35% throughout. Besides, the Ki in experiment [2] is 5.2 µM; in experiment [5], 25.1 µM. For the same molecule, in experiment [3], the outcome was inactive.
For `COc1ccc(CCC(=O)NC2(C(=O)NCC#N)CCCCC2)cc1`, the inhibition in experiment [1], in experiment [4] and in experiment [7] was under 35% each time. In experiment [2], the Ki came out at 8.9 µM. The result in experiment [3] was inactive.
As to `N#C[C@@H]1CCCN1C(=O)C1(NC(=O)OCc2ccccc2)CCCCC1`, the inhibition in experiment [1], in experiment [4] and in experiment [7] was under 35% each time. In addition, the result in experiment [3] was inactive.
Take `N#CCNC(=O)C1(NC(=O)OCc2ccccc2)CCCCC1`: the inhibition in experiment [1], in experiment [4] and in experiment [7] was under 35% in each case. The values for the Ki in experiment [2] and in experiment [5] were 1.2 µM and 26.5 µM, respectively. The result in experiment [3] was inactive.
Regarding `COc1ccc(CCC(=O)NC2(C(=O)NCC#N)CCCCC2)cc1OC`, the inhibition in experiment [1], in experiment [4] and in experiment [7] was under 35% each time. Also, in experiment [2], the inhibition constant (Ki) worked out at 7.3 µM. The result in experiment [3] was inactive.
In the case of `N#CCNC(=O)C1(NC(=O)CCc2cccs2)CCCCC1`, the inhibition in experiment [1], in experiment [4] and in experiment [7] was under 35% in each case. Also, the Ki in experiment [2] amounted to 8.8 µM. Also, the outcome in experiment [3] was inactive.
With `CC(C)(NC(=O)OCc1ccccc1)C(=O)NCC#N`, the inhibition in experiment [1], in experiment [4] and in experiment [7] was under 35% throughout. For the same molecule, the result in experiment [3] was inactive.

Values taken from ChEMBL document CHEMBL3217725, “Peptidomimetic nitriles as selective inhibitors for the malarial cysteine protease falcipain-2” (Medchemcomm, 2011).
